Reference: patent US10501473B2, “Fused heterocyclic ring compounds and method of treating retinal disease using same” (THE INDUSTRY & ACADEMIC COOPERATION IN CHUNGNAM NATIONAL …, priority 2014, dated 2019)

Experiments:
[1] = target: RIPK1 (receptor-interacting serine/threonine-protein kinase 1) (Homo sapiens (Human), UniProt Q13546); test: RIPK1 inhibitory activity, autophosphorylation of immuno-precipitated RIPK1 with [32P]γ-ATP; type: biochemical; conditions: for inhibition at 100 µM: Table 2, 100 μM; for activity at 100 µM: compound 100 μM, remaining RIPK1 phosphorylation
Protocol: The following experiment was performed to evaluate RIPK1 (receptor-interacting serine/threonine-protein kinase 1) inhibitory activity of the compounds of examples of the invention.
RIPK1 enzyme immuno-precipitated in HEK293 (Human Embryonic Kidney 293) cell lysate was used as kinase. The experiment was performed according to the method described in Cell. 12; 137(6):1112-23(2009). RIPK1 protein was over-expressed in HEK293 cell line, to which lysis buffer (50 mM Tris-Cl [pH 8.0], 150 mM NaCl, 1 mM EDTA, 1% NP-40, 0.4 mM phenylmethylsulfonyl fluoride (PMSF)) was added for cell lysis. Centrifugation was performed at 13,000 rpm for 10 minutes to separate the supernatant. RIPK1 monoclonal antibody (610459, BD Bioscience) and A/G agarose beads (sc-2003, Santa Cruz Biotechnology) were added thereto, followed by immuno-precipitation in a 4° C. rotator for 12 hours.
The immune complex was washed with lysis buffer twice and then washed with kinase assay buffer (20 mM HEPES [pH7.6], 2 mM DTT, 1 mM NaF, 1 mM Na3Vo4, 20 mM β-glycerophosphate, 20 mM PNPP, 20 mM MgCl2, 20 mM MnCl2, 1 mM Benzamidie, and 1 mM EDTA) lastly. Kinase assay buffer and the compound were added to the RIPK1 immuno-precipitate, followed by reaction in a 24° C. constant-temperature water bath for 15 minutes. Additional reaction was induced for 30 minutes at 30° C. after 100 μM of ATP and 10 μCi[^32P] γ-ATP were added thereto. The reaction mixture was washed with kinase assay buffer once, to which protein loading buffer was added, followed by heating at 100° C. for 3 minutes. The reaction mixture was then loaded on 8% SDS-PAGE gel. Radioactive image of the phosphorylated RIPK1 was detected with FLA-7000 (GE healthcare). The image Quant TL program was used for the quantification.

[2] = test system: RGC-5 (rat ganglion cell); test: Retinal nerve protection under oxygen-glucose deprivation (OGD), LDH assay; type: cell-based; conditions: RGC-5, OGD 15 hours, compound 20 μM, DMSO control = 100%
Protocol: The following experiment was performed to evaluate the protective effect of the compounds of examples of the invention on the retinal nerve under oxygen-glucose deprivation condition.
The retinal ganglion cell line RGC-5 (rat ganglion cell) was cultured in DMEM (Dulbecco's modified Eagle's medium) supplemented with 10% FBS (fetal bovine serum) and 1% penicillin/streptomycin. The cells were distributed in a 96-well plate at the density of 8×10^3 cells/well, followed by culture in a 37° C., CO2 incubator for 12 hours. The cells were washed with PBS once and the medium was replaced with glucose free DMEM. The cells were treated with either DMSO (0.1%) alone (control) or with the compounds of examples (20 μM) shown in Table 3, followed by culture in an anaerobic incubator (10% H2, 5% CO2, 85% N2, 37° C., chamber (ThermoForma, USA)) for 15 hours to induce cell death.
The level of cell death was measured by LDH (lactate dehydrogenase, Roche) assay. The LDH assay is a method for measuring the activity of LDH released from the damaged cells into the culture medium. NAD^+ was reduced to NADH and H^+ by LDH, and the bond of tetrazolium salt INT ring was cleaved by diaphorase to form formazan. Absorbance of the formazan was measured at 490 nm by using Victor 3 (PerkinElmer). The absorbance reflects the amount of dead cells.
The level of the control LDH under oxygen-glucose deprivation condition was regarded as 100%, and the level of LDH in the cell group cultured in normal medium (10% FBS, DMEM) for the same time was regarded as 0%. Based on that, the levels of LDH of the cell groups treated with the compounds of the invention under oxygen-glucose deprivation condition were converted into the relative ratio of cell death. The compounds of examples of the invention were treated to wells, each compound for three wells, and then each experiment was performed in triplicate.

Chain of RIPK1 (receptor-interacting serine/threonine-protein kinase 1) (Q13546 whole entry, species assumed): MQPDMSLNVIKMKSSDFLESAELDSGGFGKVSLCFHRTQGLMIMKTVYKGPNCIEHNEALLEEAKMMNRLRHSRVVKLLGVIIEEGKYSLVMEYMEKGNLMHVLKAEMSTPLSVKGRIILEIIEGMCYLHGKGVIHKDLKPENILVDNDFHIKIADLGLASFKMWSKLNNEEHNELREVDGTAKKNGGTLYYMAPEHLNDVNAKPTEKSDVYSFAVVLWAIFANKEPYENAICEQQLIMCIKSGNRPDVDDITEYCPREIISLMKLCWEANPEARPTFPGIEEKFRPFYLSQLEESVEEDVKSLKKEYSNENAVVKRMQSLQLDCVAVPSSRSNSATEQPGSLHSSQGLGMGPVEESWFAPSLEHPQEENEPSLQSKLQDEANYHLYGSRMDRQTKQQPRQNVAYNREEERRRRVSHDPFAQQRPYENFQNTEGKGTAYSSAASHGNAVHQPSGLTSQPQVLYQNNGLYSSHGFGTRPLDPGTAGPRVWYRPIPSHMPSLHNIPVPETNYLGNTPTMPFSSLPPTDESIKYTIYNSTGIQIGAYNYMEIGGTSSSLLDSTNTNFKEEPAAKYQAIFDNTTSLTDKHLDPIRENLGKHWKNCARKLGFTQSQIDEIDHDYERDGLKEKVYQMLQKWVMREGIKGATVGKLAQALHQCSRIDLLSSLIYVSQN

Row | Structure (SMILES) | inhibition at 100 µM [1] | activity at 100 µM [1] | Death of retinal nerve cell (%) [2]
1 | O=C(c1cc2c(CCc3ccc(F)cc3)cccc2s1)N1CCOCC1 [Example 60, (4-(4-fluorophenethyl)benzo[b]thiophene-2-yl)(morpholino)methanone] | ≥ 50% | 22 ± 15.6% | 89.8 ± 10.7%
2 | O=C(c1cc2c(-c3ccc(F)cc3)cccc2s1)N1CCC(O)CC1 [Example 48, (4-(4-fluorophenyl)benzo[b]thiophene-2-yl)(4-hydroxypiperidine-1-yl)methanone] | ≥ 50% | 25.5 ± 0.7% | 47.7 ± 13.2%
3 | O=C(c1cc2cc(O)ccc2[nH]1)N1CCOCC1 [Example 11, (5-hydroxy-1H-indole-2-yl)(morpholino)methanone] |  | 70.7 ± 28.5% | 41.1 ± 3.1%
4 | Cl.NC1CCN(C(=O)c2cc3c(-c4ccc(F)cc4)cccc3s2)CC1 [Example 37, (4-aminopiperidine-1-yl) (4-(4-fluorophenyl)benzo[b]thiophene-2-yl)methanone hydrochloride] | ≥ 50% | 25.5 ± 14.8% | 87.0 ± 13.2%
5 | O=C(c1cc2ccc3ccccc3c2s1)N1CCOCC1 [Example 6, morpholino(naphtho[1,2-b]thiophene-2-yl)methanone] | ≥ 50% | 48.5 ± 23.3% | 30.7 ± 1.06%
6 | O=C(c1cc2c(OCc3ccc(F)cc3)cccc2s1)N1CCOCC1 [Example 61, (4-(4-fluorobenzyloxy)benzo[b]thiophene-2-yl)(morpholino)methanone] | ≥ 50% | 22.5 ± 12% | 53.5 ± 14.5%
7 | O=C(c1cc2c(S(=O)(=O)Cc3ccc(F)cc3)cccc2s1)N1CCOCC1 [Example 62, (4-(4-fluorobenzylsulfonyl)benzo[b]thiophene-2-yl)(morpholino)methanone] |  | 82.5 ± 5% | 59.3 ± 16.3%
8 | O=C(c1cc2c(Cc3cccc(F)c3)cccc2s1)N1CCOCC1 [Example 56, (4-(3-fluorobenzyl)benzo[b]thiophene-2-yl)(morpholino)methanone] |  | 54.5 ± 37.5% | 81.0 ± 16.1%
9 | O=C(c1cc2c(Nc3ccc(F)cc3F)cccc2s1)N1CCOCC1 [Example 58, (4-(2,4-difluorophenylamino)benzo[b]thiophene-2-yl)(morpholino)methanone] |  | 78.5 ± 30.4% | 89.4 ± 6.4%
10 | O=C(c1cc2cc(-c3ccc(F)cc3)ccc2s1)N1CCOCC1 [Example 40, (5-(4-fluorophenyl)benzo[b]thiophene-2-yl)(morpholino)methanone] |  | 57.5 ± 12% | 68.2 ± 11.2%
11 | O=C(c1cc2c(Cc3ccc(F)cc3F)cccc2s1)N1CCOCC1 [Example 57, (4-(2,4-difluorobenzyl)benzo[b]thiophene-2-yl)(morpholino)methanone] |  | 20 ± 14.1% | 89.1 ± 16.9%
12 | Cc1cc(C)c2cc(C(=O)N3CCOCC3)sc2c1 [Example 17, (4,6-dimethylbenzo[b]thiophene-2-yl)(morpholino)methanone] |  | 62.5 ± 16.8% | 38.5 ± 5.5%
13 | O=C(c1cc2c(SCc3ccc(F)cc3)cccc2s1)N1CCOCC1 [Example 71, (4-(4-fluorobenzylthio)benzo[b]thiophene-2-yl)(morpholino)methanone] |  | 87 ± 4.2% | 89.1 ± 14.9%

The next lines start with results.

Row | inhibition at 100 µM [1] | activity at 100 µM [1] | Structure (SMILES) | Death of retinal nerve cell (%) [2]
14 | ≥ 50% | 22 ± 19.8% | Cn1cc(-c2cccc3sc(C(=O)N4CCOCC4)cc23)cn1 [Example 73, (4-(1-methyl-1H-pyrazol-4-yl)benzo[b]thiophene-2-yl)(morpholino)methanone] | 62.3 ± 10.1%
15 | ≥ 50% | 21 ± 7.1% | O=C(c1cc2c(Oc3ccc(F)cc3)cccc2s1)N1CCOCC1 [Example 59, (4-(4-fluorophenoxy)benzo[b]thiophene-2-yl)(morpholino)methanone] | 59.5 ± 14.7%
16 |  | 7 ± 8.5% | Cn1c(C#N)ccc1-c1cccc2sc(C(=O)N3CCOCC3)cc12 [Example 72, 1-methyl-5-(2-(morpholine-4-carbonyl)benzo[b]thiophene-4-yl)-1H-pyrrole-2-carbonitrile] | 58.5 ± 16.1%
17 | ≥ 50% | 21 ± 17% | O=C(c1cc2c(-c3ccc(O)cc3)cccc2s1)N1CCOCC1 [Example 44, (4-(4-hydroxyphenyl)benzo[b]thiophene-2-yl)(morpholino)methanone] | 81.1 ± 6.5%
18 |  | 6.5 ± 4.9% | Cc1ccc(-c2cccc3sc(C(=O)N4CCOCC4)cc23)cc1 [Example 32, morpholino(4-p-tolylbenzo[b]thiophene-2-yl)methanone] | 64.6 ± 7.4%
19 | ≥ 50% | 33.5 ± 12% | O=C(c1cc2c(Nc3ccc(F)cc3)cccc2s1)N1CCOCC1 [Example 68, (4-(4-fluorophenylamino)benzo[b]thiophene-2-yl)(morpholino)methanone] | 58.3 ± 11.9%
20 | ≥ 50% | 43 ± 7.1% | COc1ccc(-c2cccc3sc(C(=O)N4CCOCC4)cc23)cn1 [Example 55, (4-(6-methoxypyridine-3-yl)benzo[b]thiophene-2-yl)(morpholino)methanone] | 47.2 ± 12.4%
21 |  | 58.5 ± 17.7% | NC(=O)c1ccc(-c2cccc3sc(C(=O)N4CCOCC4)cc23)cc1 [Example 43, 4-(2-(morpholine-4-carbonyl)benzo[b]thiophene-4-yl)benzamide] | 62.3 ± 1.7%
22 | ≥ 50% | 47.5 ± 2.1% | CSc1ccc(-c2cccc3sc(C(=O)N4CCOCC4)cc23)cc1 [Example 50, (4-(4-(methylthio)phenyl)benzo[b]thiophene-2-yl)(morpholino)methanone] | 57.2 ± 8.1%
23 | ≥ 50% | 49.5 ± 3.5% | O=C(c1cc2c(Cc3ccc(F)cc3)cccc2s1)N1CCOCC1 [Example 67, (4-(4-fluorobenzyl)benzo[b]thiophene-2-yl)(morpholino)methanone] | 59.3 ± 14.9%
24 |  | 16.5 ± 7.8% | COc1ccc(-c2cccc3sc(C(=O)N4CCOCC4)cc23)cc1 [Example 34, (4-(4-methoxyphenyl)benzo[b]thiophene-2-yl)(morpholino)methanone] | 55.4 ± 18.1%
25 | ≥ 50% | 45 ± 12.7% | O=C(c1cc2c(-c3ccc(F)cc3)cncc2s1)N1CCOCC1 [Example 2, (4-(4-fluorophenyl)thieno[2,3-c]pyridine-2-yl)(morpholino)methanone] | 
26 |  | 76 ± 33.9% | O=C(c1cc2c(-c3ccc4[nH]ccc4c3)cccc2s1)N1CCOCC1 [Example 9, (4-(1H-indole-5-yl)benzo[b]thiophene-2-yl)(morpholino)methanone] | 64.6 ± 9.5%
27 |  | 83.6 ± 12.7% | COS(=O)c1ccc(-c2cccc3sc(C(=O)N4CCOCC4)cc23)cc1 (stereo not drawn) [Example 64, methyl 4-(2-(morpholine-4-carbonyl)benzo[b]thiophene-4-yl)benzene sulfinate] | 63.0 ± 17.8%
